Tests used:
Rat whole blood (RWB) = test: LTB4 secretion assay in RWB (rat whole blood); format: cell-based; settings: Rattus norvegicus
Method: Rat blood was drawn from caudal vena cava from male Sprague Dawley rat (6-9 weeks old) in vacuette coated with sodium heparin (Greiner bio-one, Cat #455051). The blood was pooled and diluted with RPMI (WelGENE, Cat #LM 011-05) to 1:1. The diluted blood was aliquoted into 96 well plate (200 ul per well) and compounds were added in dose response to a desired concentration ranging from 2.5 nM to 50 uM. After 15 min of pre-incubation at 37° C., calcium ionophore (A23187) was added to the final concentration of 10 uM. After 10 min of further incubation at 37° C., the LTB4 production was stopped by diluting the reaction mixture with ice cold PBS (1:4 dilutions). Cells were removed by centrifugation at 1000×g, 4° C. for 10 min, and the supernatant was transferred and then the quantification of LTB4 was done with Leukotriene B4 EIA kit (Cayman, Cat #520111) as instructed.

human 5-LOX = molecular target: T1, human 5-LOX (Homo sapiens, UniProt P09917); test: 5-LOX enzyme activity, fluorescence method (5-HPETE, H2DCFDA); format: biochemical; settings: read-out: 5-LO (IC50)
T1 construct: purchased Cayman 60402; host or cells: insect cells (lysate)
T1 sequence (P09917 1-674): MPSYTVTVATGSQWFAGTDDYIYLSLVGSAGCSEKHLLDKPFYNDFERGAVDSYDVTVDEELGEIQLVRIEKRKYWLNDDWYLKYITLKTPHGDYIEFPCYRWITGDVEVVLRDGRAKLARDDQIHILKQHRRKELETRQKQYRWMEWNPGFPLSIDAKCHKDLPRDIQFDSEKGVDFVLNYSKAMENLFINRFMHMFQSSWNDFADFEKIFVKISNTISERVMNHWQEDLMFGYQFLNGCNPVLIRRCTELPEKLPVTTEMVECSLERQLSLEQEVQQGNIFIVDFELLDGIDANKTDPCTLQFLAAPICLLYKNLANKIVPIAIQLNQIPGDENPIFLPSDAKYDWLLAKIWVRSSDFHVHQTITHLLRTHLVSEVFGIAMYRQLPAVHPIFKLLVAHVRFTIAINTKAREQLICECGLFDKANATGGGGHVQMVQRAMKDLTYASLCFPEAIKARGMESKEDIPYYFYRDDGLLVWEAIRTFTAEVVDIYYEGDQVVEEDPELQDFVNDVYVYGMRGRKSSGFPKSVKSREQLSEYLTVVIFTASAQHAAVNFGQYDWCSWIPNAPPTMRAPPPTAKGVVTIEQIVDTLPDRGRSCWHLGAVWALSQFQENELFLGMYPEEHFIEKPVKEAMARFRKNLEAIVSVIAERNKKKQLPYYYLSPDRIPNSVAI
Summary of the method: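 Fluorescence-based read-out, run entirely at room temperature. Enzyme mixture was exposed to a dose range of compound from 0.5 nM to 10 uM for 5 min before ATP and arachidonic acid were added to final levels of 100 uM and 3 uM.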

[1] = tested on: Rat basophilic leukemia (RBL) cells; test: LTB4 secretion assay in RBL (rat basophilic leukemia cells); format: cell-based; settings: Rattus norvegicus, RBL
Summary of the method: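 LTB4 released into supernatant was measured by EIA after 10 min at 37 °C with arachidonic acid (2.5 uM final) and calcium ionophore A23187 (5 uM final). Before stimulation, cells plated 2×10^4/well overnight received compound doses (5 nM to 100 uM) for 15 min in 0.5% FBS medium.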

Question: `CC(C)(O)Cn1c(NCc2ccc(Oc3ccc(Cl)cn3)cc2)nc2ccc(N)cc21` [Compound 203] was tested. Which EC50 (Rat whole blood (RWB)) did it give?
Answer: > 20 µM

Question: What about the IC50 (human 5-LOX) of the same compound?
Answer: < 1 µM

Question: And the EC50 [1]?
Answer: < 10 µM

Question: `Cn1c(NCc2ccc(Oc3ncccn3)cc2)nc2ccc(NC3COC3)cc21` [Compound 345] was tested. Which EC50 (Rat whole blood (RWB)) did it give?
Answer: < 10 µM

Question: And the IC50 (human 5-LOX)?
Answer: < 1 µM

Question: And the EC50 [1]?
Answer: > 20 µM

Question: Which EC50 (Rat whole blood (RWB)) does the source give for `Cn1c(NCc2ccc(Oc3ncc(C(F)(F)F)cn3)cc2)nc2ccc(NC3COC3)cc21` [Compound 374] here?
Answer: < 10 µM

Question: And the IC50 (human 5-LOX)?
Answer: < 1 µM

Question: What about the EC50 [1] of the same compound?
Answer: < 10 µM

Question: Which results are given for `Nc1ccc2[nH]c(NCc3ccc(Oc4ccc(Cl)c(Cl)c4)cc3)nc2c1` [Compound 112]?
Answer: EC50 (Rat whole blood (RWB)): 10 to 20 µM; IC50 (human 5-LOX): < 1 µM; EC50 [1]: < 10 µM

Question: Which EC50 (Rat whole blood (RWB)) does the source give for `N#CC1(Nc2ccc3[nH]c(NCc4ccc(Oc5ccc(Cl)cc5)cc4)nc3c2)CCC1` [Compound 137] here?
Answer: < 10 µM

Question: And the IC50 (human 5-LOX)?
Answer: < 1 µM

Question: What about the EC50 [1] of the same compound?
Answer: < 10 µM

Question: How did the EC50 (Rat whole blood (RWB)) turn out when `Cc1cc(CNc2nc3ccc(NC4COC4)cc3n2C)cc(C)c1Oc1ncc(Cl)cn1` [Compound 418] was run?
Answer: > 20 µM

Question: What about the IC50 (human 5-LOX) of the same compound?
Answer: < 1 µM

Question: And the EC50 [1]?
Answer: > 20 µM

Question: `Cn1c(NCc2c(F)cc(Oc3ncc(Cl)cn3)cc2F)nc2ccc(N)cc21` [Compound 430] was tested. Which EC50 (Rat whole blood (RWB)) did it give?
Answer: < 10 µM

Question: What about the IC50 (human 5-LOX) of the same compound?
Answer: < 1 µM

Question: And the EC50 [1]?
Answer: < 10 µM

Question: `COc1nc(Oc2ccc(CNc3nc4ccc(NC5COC5)cc4n3C)cc2)ncc1Cl` [Compound 459] was tested. Which EC50 (Rat whole blood (RWB)) did it give?
Answer: 10 to 20 µM

Question: What about the IC50 (human 5-LOX) of the same compound?
Answer: < 1 µM

Question: And the EC50 [1]?
Answer: 10 to 20 µM

Question: For `Nc1ccc2[nH]c(NCc3ccc(Oc4ccc(Cl)nc4)cc3)nc2c1` [Compound 136], which EC50 (Rat whole blood (RWB)) is on record?
Answer: < 10 µM

Question: What about the IC50 (human 5-LOX) of the same compound?
Answer: < 1 µM

Question: And the EC50 [1]?
Answer: < 10 µM

Question: Which results are given for `Cn1nc(Nc2ccc3nc(NCc4ccc(Oc5ncc(Cl)cn5)cc4)n(C)c3c2)cc1CF` [Compound 538]?
Answer: EC50 (Rat whole blood (RWB)): < 10 µM; IC50 (human 5-LOX): < 1 µM; EC50 [1]: < 10 µM

Question: What does the source list for `Cn1c(NCc2ccc(Oc3ncc(C(F)(F)F)cn3)cc2)nc2ccc(N)cc21` [Compound 373]?
Answer: EC50 (Rat whole blood (RWB)): < 10 µM; IC50 (human 5-LOX): < 1 µM; EC50 [1]: < 10 µM

Question: How did the EC50 (Rat whole blood (RWB)) turn out when `Nc1ccc2nc(NCc3ccc(OCCC(F)(F)F)cc3)[nH]c2c1` [Compound 176] was run?
Answer: < 10 µM

Question: And the IC50 (human 5-LOX)?
Answer: < 1 µM

Question: And the EC50 [1]?
Answer: < 10 µM

Question: With `Cc1[nH]nc(Nc2ccc3nc(NCc4ccc(Oc5ncc(Cl)cn5)cc4)n(C)c3c2)c1Cl` [Compound 481] as the compound, how does the EC50 (Rat whole blood (RWB)) read?
Answer: < 10 µM

Question: What about the IC50 (human 5-LOX) of the same compound?
Answer: < 1 µM

Question: And the EC50 [1]?
Answer: < 10 µM

Question: `CC(C)(C)Nc1ccc2nc(N)n(CCOc3ccc(OC(F)(F)F)cc3)c2c1` [Compound 93] was tested. Which EC50 (Rat whole blood (RWB)) did it give?
Answer: > 20 µM

Question: What about the IC50 (human 5-LOX) of the same compound?
Answer: < 1 µM

Question: And the EC50 [1]?
Answer: < 10 µM

Question: Which EC50 (Rat whole blood (RWB)) does the source give for `Cn1c(NCc2ccc(Oc3ncc(F)cn3)cc2)nc2ccc(NC3COC3)cc21` [Compound 337] here?
Answer: 10 to 20 µM

Question: What about the IC50 (human 5-LOX) of the same compound?
Answer: < 1 µM

Question: And the EC50 [1]?
Answer: 10 to 20 µM

Question: What does the source list for `CCC(Nc1ccc2[nH]c(N(C)C)nc2c1)c1ccc(Oc2ccc(Cl)cc2)cc1` (stereo not drawn) [Compound 128]?
Answer: EC50 (Rat whole blood (RWB)): > 20 µM; IC50 (human 5-LOX): < 1 µM; EC50 [1]: < 10 µM

Question: With `Cn1c(NCc2ccc(Oc3ncc(F)cn3)cc2)nc2ccc(N)cc21` [Compound 336] as the compound, how does the EC50 (Rat whole blood (RWB)) read?
Answer: < 10 µM

Question: And the IC50 (human 5-LOX)?
Answer: < 1 µM

Question: And the EC50 [1]?
Answer: 10 to 20 µM

Question: With `COCCNc1nc2ccc(N3CCC(Oc4ccc(OC(F)(F)F)cc4)C3)cc2[nH]1` (stereo not drawn) [Compound 148] as the compound, how does the EC50 (Rat whole blood (RWB)) read?
Answer: > 20 µM

Question: What about the IC50 (human 5-LOX) of the same compound?
Answer: < 1 µM

Question: And the EC50 [1]?
Answer: < 10 µM

Question: How did the EC50 (Rat whole blood (RWB)) turn out when `Cn1c(NCc2ccc(Oc3ncc(Cl)cn3)cc2F)nc2ccc(NC3COC3)cc21` [Compound 381] was run?
Answer: < 10 µM

Question: And the IC50 (human 5-LOX)?
Answer: < 1 µM

Question: What about the EC50 [1] of the same compound?
Answer: > 20 µM

Question: What does the source list for `Nc1ccc2nc(N3CCCC3)n(CCOc3ccc(OC(F)(F)F)cc3)c2c1` [Compound 51]?
Answer: EC50 (Rat whole blood (RWB)): 10 to 20 µM; IC50 (human 5-LOX): < 1 µM; EC50 [1]: < 10 µM

Question: Which EC50 (Rat whole blood (RWB)) does the source give for `CCC(Nc1nc2ccc(Nc3cc(C4CC4)[nH]n3)cc2n1C)c1ccc(Oc2ncc(Cl)cn2)cc1` (stereo not drawn) [Compound 530] here?
Answer: < 10 µM

Question: What about the IC50 (human 5-LOX) of the same compound?
Answer: < 1 µM

Question: And the EC50 [1]?
Answer: < 10 µM

— patent US11447486B2, “2-amino-benzimidazole derivatives and their use as 5-lipoxygenase and/or prostaglandin E synthase inhibitors” (INSTITUT PASTEUR KOREA, priority 2014, dated 2022)
